The record followed here is patent EP4685136A1, “AMINO LIPID, AND LIPID NANOPARTICLES AND USE THEREOF” (Shenzhen MagicRNA Biotechnology Co., Ltd., priority 2023, dated 2024).

SMILES strings stand for the structures.

Data set [1] is described as follows: Particle size and PDI of LNPs with different phospholipid lipid contents (Malvern particle size analyzer). The data set is classed as physicochemical. To be noted: Luc-mRNA LNPs, molar ratios of Table 4 (B1-B7); controls with 10 % phospholipid lipid. The source says:
(§1) Preparation of lipid nanoparticles: the ionizable lipid (E12LA6B6O3) content was kept at 42.5%, the PEGylated lipid DMG-PEG2000 content was kept at 1.5%, and the phospholipid lipid ratio was adjusted to 15, 12.5, 10, 7.5, 5.0, 2.5, and 0. The increased or decreased molar ratio during adjustment of the phospholipid lipid molar ratio was applied to the cholesterol ratio to verify its effect on the quality control evaluation of lipid nanoparticles and on the in vivo delivery performance of luciferase mRNA. ALC-0315 and SM-102 were used as positive controls. Table 4: Component ratios under different phospholipids
(§2) E12LA6B6O3, phospholipid lipid (DSPC), cholesterol, and PEGylated lipid DMG-PEG2000 were mixed and dissolved in anhydrous ethanol according to the molar ratio in Table 4. The obtained ethanol solution and citric acid buffer (50 mM, pH = 4.0) dissolved with Luc-mRNA (TriLink) were mixed in a microfluidic chip at a volume ratio of 1:3 using a microfluidic preparation system to prepare a crude solution of lipid nanoparticles, which was then dialyzed in 1X PBS at 4°C for 6 h using a dialysis cassette (Fisher, MWCO 20,000). The product was filtered through a 0.22 µm microporous filter membrane before use. The base molar ratio of the amino lipid compound to the luciferase mRNA (Luc mRNA) is about 6.5:1. The quality control of lipid nanoparticles was tested on a Malvern particle size analyzer and an microplate reader, and SM-102 and ALC-0315 (both purchased from AVT (Shanghai) Pharmaceutical Technology Co., Ltd) were added as a control group.

Another data set has as its system Balb/C mice. In words: In vivo delivery of luciferase mRNA by tail vein injection of LNPs with different DSPC contents (IVIS Spectrum). The settings on record: total fluorescence intensity, 0.1 mg/kg mRNA, 6 hours.
Text: as §1
E12LA6B6O3, phospholipid lipid (DSPC), cholesterol, and PEGylated lipid DMG-PEG2000 were mixed and dissolved in anhydrous ethanol according to the molar ratio in Table 4. […] The quality control of lipid nanoparticles was tested on a Malvern particle size analyzer and an microplate reader, and SM-102 and ALC-0315 (both purchased from AVT (Shanghai) Pharmaceutical Technology Co., Ltd) were added as a control group. […]
In vivo delivery: Three Balb/C mice were randomly selected from each group and injected with lipid nanoparticle solution at a dose of 0.1 mg/kg mRNA via tail vein injection. […] After 10 minutes, the mice were placed under the in vivo imaging system (IVIS Spectrum) to observe the total fluorescence intensity of each mouse and take photos for recording. […]

Data set [2] is described as follows: Encapsulation efficiency of LNPs with different phospholipid lipid contents (microplate reader). The data set is classed as physicochemical. To be noted: Luc-mRNA LNPs, molar ratios of Table 4 (B1-B7); controls with 10 % phospholipid lipid.
Text: as §1
as §2, with “The product was filtered through a 0.22 µm microporous filter membrane before use. The base molar ratio of the amino lipid compound to the luciferase mRNA (Luc mRNA) is about 6.5:1.” left out

Another data set relates to C57BL/6 mice. In words: In vivo delivery of luciferase mRNA by intramuscular injection of LNPs (IVIS imaging). The settings on record: total fluorescence intensity, Luc mRNA LNP, 0.5 mg/kg mRNA, 12 hours. The procedure: Preparation of lipid nanoparticles: same as Example 36.
(§3) Animal preparation: 6-week-old female C57BL/6 mice weighing about 20 g were selected and raised in an SPF-grade feeding room. Animal experiments were conducted strictly in accordance with the guidelines of the National Institutes of Health and animal ethics requirements.
In vivo delivery: Five C57BL/6 mice were randomly selected from each group and injected with lipid nanoparticle solution at a dose of 0.5 mg/kg mRNA by intramuscular injection. Twelve hours later, 200 µL of 10 mg/mL D-luciferin potassium salt was injected into the peritoneal cavity of each mouse. Five minutes later, the mice were placed under an in vivo imaging system (IVIS-200, Xenogen) to observe the total fluorescence intensity of each mouse and take photos for recording. The expression intensity of Luc mRNA delivered by intramuscular injection of LNPs composed of representative amino lipid compounds is shown in Table 3, with DLin-MC3 and SM-102 as controls. Table 3 Expression intensity of Luc mRNA delivered by intramuscular injection of LNPs composed of representative amino lipids

The test system of a further data set is primary BMDC cells. In words: Transfection of Luc mRNA lipid nanoparticles on primary BMDC cells (ONE-Glo luciferase readout). The data set is classed as cell-based, C57BL/6 mice. To be noted: expression intensity of Luc mRNA on BMDCs; 10 µL LNP per well, 20,000 cells per well, 12 hours. On the procedure:
as §3
Cell acquisition: C57BL/6 mice were sacrificed by cervical dislocation and immersed in 75% alcohol for 5 minutes for disinfection. The thigh and tibia of the mice were dissected and the attached muscles were removed to expose the bone. The bone marrow in the tibia was blown out with a 1 mL syringe filled with PBS. The obtained bone marrow was dispersed by blowing and filtered through a 50 µm filter mesh to remove impurities. Red blood cell lysis solution (3-4 mL) was added to the obtained filtrate and allowed to stand for 5 minutes. Then, the supernatant was removed by centrifugation at 800 g for 5 minutes. The obtained cells were placed in 1640 culture medium (containing 10% fetal bovine serum, 20 ng/mL GMCSF, 10 ng/mL IL4) for being resuspended, and inoculated into 6-well plates at a density of 100,000 cells/mL of culture medium. The plates were placed in a cell culture incubator containing 5% CO2 at 37°C, and the medium was half-changed every 2 days. On the seventh day, the suspended cells and loosely adherent cells were collected and inoculated into 96-well all-white ELISA plates at a density of 20,000 cells per well, with a culture medium volume of 100 µL.
Cell transfection: the lipid nanoparticles encapsulating luciferase mRNA were added to a 96-well all-white ELISA plate with spreaded primary cells, and the volume of mRNA lipid nanoparticles added to each well was controlled to be 10 µL. Then, the plate was placed in an incubator with 5% CO2 concentration at 37°C for 12 hours.
Transfection efficiency detection: 20 µL of substrate ONE-Glo™ Luciferase was added to each well of a 96-well all-white ELISA plate, and the assay was performed using a multifunctional microplate reader (Biorek SynergyH1) after 1 min. The expression intensity of Luc mRNA transfected on BMDCs by lipid nanoparticles (LNPs) composed of representative amino lipid compounds is shown in Table 2, with DLin-MC3 and SM0102 as controls. Table 2 Expression intensity of transfection of representative amino lipid compounds on BMDCs

Data set [3] in a line: Encapsulation efficiency of Luc-mRNA lipid nanoparticles (Quant-iT RiboGreen RNA Kit). The format is physicochemical. To be noted: LNP of amino lipid:DSPC:cholesterol:DMG-PEG2000 47.5:10:41:1.5 with Luc-mRNA; lipid to mRNA mass ratio about 40:1. On the procedure: (§4) The amino lipid compound of the present invention (or DLin-MC3 or SM-102 (both purchased from AVT (Shanghai) Pharmaceutical Technology Co., Ltd.)), phospholipid lipid (DSPC), cholesterol, and PEGylated lipid (DMG-PEG2000) were mixed and dissolved in anhydrous ethanol at a molar ratio of 47.5:10:41:1.5. The resulting ethanol solution and citric acid buffer (50 mM, pH = 4.0) dissolved with Luc-mRNA (TriLink) were mixed in a microfluidic chip at a volume ratio of 1:3 using a microfluidic preparation system to prepare a crude solution of lipid nanoparticles, which was then dialyzed in 1X PBS at 4°C for 6 h using a dialysis cassette (Fisher, MWCO 20,000). The product was filtered through a 0.22 µm microporous filter membrane before use. The mass ratio of the amino lipid compound to luciferase mRNA (Luc mRNA) was about 40:1.
The encapsulation efficiency was determined according to the standard procedure of the Quant-iT RiboGreen RNA Kit. Table 1 Characterization data of LNPs prepared using representative amino lipid compounds

The nature of data set [4]: Particle size and PDI of Luc-mRNA lipid nanoparticles (Nano-ZS ZEN3600, Malvern). The settings on record: LNP of amino lipid:DSPC:cholesterol:DMG-PEG2000 47.5:10:41:1.5 with Luc-mRNA; lipid to mRNA mass ratio about 40:1. The data set is classed as physicochemical. On the procedure:
as §4
The particle size and PDI (polydispersity index) of the prepared lipid nanoparticles were measured by Nano-ZSZEN3600 (Malvern). 20 µL of lipid nanoparticle (LNP) solution was taken for particle size measurement, and cycled three times with each cycle for 30 s.

As for `CCCCCCCCC(CCCCCC)C(=O)OCCCCCCN(CCCCO)CCCCCCOC(=O)C(CCCCCC)CCCCCCCC` (stereo not shown) [ALC-0315], in data set [1], the PDI was determined as 0.08 and the “Particle size (nm)” value came to 71.3 nm. In addition, in the data set with Balb/C mice, the Fluorescence intensity amounted to 1.26E+10. In addition, the “Encapsulation efficiency (%)” value in data set [2] was found to be 94.1%.

As for `CCCCCCCCCCCOC(=O)CCCCCN(CCO)CCCCCCCC(=O)OC(CCCCCCCC)CCCCCCCC` [SM-102, reference compound], the PDI in data set [1] is listed as 0.09; in data set [4], 0.10. Also, the “Particle size (nm)” value in data set [1] was 91.9 nm. Also, the values for the Fluorescence intensity with Balb/C mice and with C57BL/6 mice were 9.86E+9 and 1.4E+09, respectively. In addition, the “Encapsulation efficiency (%)” value was found to be 96.4% in data set [2] and 94.32% in data set [3]. Moreover, in the data set on primary BMDC cells, the Luminescence intensity amounted to 1.0E+05. Besides, the “Average particle size (nm)” value in data set [4] is 79 nm.
